# Data published in patent publication US9526713B2, “Use of dencichine in preparation of drug for treating thrombocytopenia” (KUNMING SHENGHUO PHARMACEUTICAL (GROUP) CO., LTD., priority 2013, dated 2016).
# Like-named read-outs stand apart in the source and are kept apart here.
# Key:
# [1] = Body weight of rats suffering thrombopenia induced by carboplatin; format: in vivo, Wistar rats
# Procedure: 81 rats are prepared and randomly divided into eight groups: • blank control group, • high-dose group A (4 mg/kg, intraperitoneal injection, non modeling), • model group (40 mg/kg, tail vein injection), • interleukin-11 group (260 μg/kg, subcutaneous injection), • high dose group B (4 mg/kg, intraperitoneal injection, modeling), • high dose group (4 mg/kg, intraperitoneal injection), • middle dose group (1 mg/kg, intraperitoneal injection), and • low dose group (0.25 mg/kg, intraperitoneal injection),
# wherein, the Model group has 11 rats, and the other groups has 10 rats respectively. Before the experiment, the animals are asked to adapt the environment for 2 days, and then blood is taken from their tails for detecting hematological index.
# After administration for 10 days, blood is taken from tails of rats from blank control group, high-dose group A, and positive drug group respectively for detecting hematological index.
# Thereafter, all animals, except for those of blank group and high-dose group A, are individually injected with carboplatin (40 mg/kg) for modeling, and followed by successive administration for 15 days. During these 15 days, the rats of high-dose group A and high dose group B are stopped from administration, and taken blood from the tail on 5th day, 10th day and 15th day after the modeling respectively for detecting hematological indices. After 15th day of modeling, carboplatin (40 mg/kg) is injected again for a second modeling, and all the groups take successive administration according to the foregoing method, once a day for successive 10 days. Before each hematological indices detection, animals are weighed respectively. Taking the tails' blood of rats on 5th day after the second injection of carboplatin for detecting hematological indices, and taking the tails' blood of rats on 10th day after the second injection of carboplatin for detecting the indices of hematology, reticulocytes and coagulation; and weighing animals and killing them; and weighing liver, thymus, spleen and adrenal gland taken from the dead rats, and calculating out viscera indices; further taking out marrow for doing pathological examination.
# [2] = format: in vivo, BALB/C mice
# Procedure: Health BALB/C mice (body weight 18˜22 g) are randomly divided into six groups with 12 mice for each group:
# Except the normal group, the mice of the remain five groups are injected with anti-mouse platelet serum (APS) of the guinea pig with a dose of 100 μl/20 g body weight, via intraperitoneal injection, on the 1st, 3rd, 5th, 7th, 9th, 11th and 13th day of the experiment.
# The mice of each group are given intragastric administration from the first day. […] The mice of the prednisone acetate group are given intragastric administration of suspension of prednisone acetate at 5 mg/(kg·d). The mice of other groups are given intragastric administration of same volumetric of normal saline at 0.2 ml/20 g body weight. Intragastric administration for once each day, and continuous administration for 14 days.
# The weights of mice of each group are respectively measured before modeling, on 7th test day, and on 14th test day.
# thrombocyte aggregation = assay: Thrombocyte aggregation rate of rats injected with carboplatin; format: in vivo, rat
# From the text: So far, it has been reported that a little dencichine can be used as hemostatic drug in prior art, as disclosed in the patent application with publication No. CN1292376A that administrating a little dencichine can achieve hemostasis. However, it has never been reported that dencichine is able to treat Thrombocytopenia.
smiles,measurement,setting,value
"N[C@@H](CNC(=O)C(=O)O)C(=O)O [Dencichine, β-N-oxalyl-L-α, β-diaminopropionic acid]",body weight,"[1]; high dose group A, 4 mg/kg i.p., non modeling, 5th day after first injection of carboplatin",303.5 ± 17.17 g
same,body weight,"[1]; high dose group A, 4 mg/kg i.p., non modeling, 5th day after second injection of carboplatin",360.7 ± 24.05 g
same,body weight,"[1]; high dose group A, 4 mg/kg i.p., non modeling, 10th day after first injection of carboplatin",315.0 ± 17.29 g
same,body weight,"[1]; high dose group A, 4 mg/kg i.p., non modeling, 10th day after second injection of carboplatin",362.8 ± 28.63 g
same,body weight,"[1]; high dose group A, 4 mg/kg i.p., non modeling, 15th day after first injection of carboplatin",342.5 ± 19.93 g
same,body weight,"[1]; high dose group A, 4 mg/kg i.p., non modeling, before experiment",187.5 ± 7.37 g
same,body weight,"[1]; high dose group A, 4 mg/kg i.p., non modeling, prophylactic administration for 10 days",281.1 ± 13.19 g
same,body weight,"[1]; high dose group B, 4 mg/kg i.p., prophylactic, modeling, 5th day after first injection of carboplatin",289.9 ± 18.16 g
same,body weight,"[1]; high dose group B, 4 mg/kg i.p., prophylactic, modeling, 5th day after second injection of carboplatin",317.8 ± 25.87 g
same,body weight,"[1]; high dose group B, 4 mg/kg i.p., prophylactic, modeling, 10th day after first injection of carboplatin",308.2 ± 16.69 g
same,body weight,"[1]; high dose group B, 4 mg/kg i.p., prophylactic, modeling, 10th day after second injection of carboplatin",314.7 ± 28.71 g
same,body weight,"[1]; high dose group B, 4 mg/kg i.p., prophylactic, modeling, 15th day after first injection of carboplatin",318.7 ± 17.76 g
same,body weight,"[1]; high dose group B, 4 mg/kg i.p., prophylactic, modeling, before experiment",187.6 ± 9.46 g
same,body weight,"[1]; high dose group B, 4 mg/kg i.p., prophylactic, modeling, prophylactic administration for 10 days",284.7 ± 15.43 g
same,body weight,"[1]; high dose group, 4 mg/kg i.p., 5th day after first injection of carboplatin",298.8 ± 24.10 g
same,body weight,"[1]; high dose group, 4 mg/kg i.p., 5th day after second injection of carboplatin",324.6 ± 23.20 g
same,body weight,"[1]; high dose group, 4 mg/kg i.p., 10th day after first injection of carboplatin",314.0 ± 27.14 g
same,body weight,"[1]; high dose group, 4 mg/kg i.p., 10th day after second injection of carboplatin",316.6 ± 15.35 g
same,body weight,"[1]; high dose group, 4 mg/kg i.p., 15th day after first injection of carboplatin",341.8 ± 32.01 g
same,body weight,"[1]; high dose group, 4 mg/kg i.p., before experiment",188.8 ± 9.64 g
same,body weight,"[1]; high dose group, 4 mg/kg i.p., prophylactic administration for 10 days",285.8 ± 20.94 g
same,body weight,"[1]; low dose group, 0.25 mg/kg i.p., 5th day after first injection of carboplatin",302.6 g
same,body weight,"[1]; low dose group, 0.25 mg/kg i.p., 5th day after second injection of carboplatin",325.9 g
same,body weight,"[1]; low dose group, 0.25 mg/kg i.p., 10th day after first injection of carboplatin",317.2 g
same,body weight,"[1]; low dose group, 0.25 mg/kg i.p., 10th day after second injection of carboplatin",325.2 g
same,body weight,"[1]; low dose group, 0.25 mg/kg i.p., 15th day after first injection of carboplatin",343.2 g
same,body weight,"[1]; low dose group, 0.25 mg/kg i.p., before experiment",189.6 g
same,body weight,"[1]; low dose group, 0.25 mg/kg i.p., prophylactic administration for 10 days",288.7 g
same,body weight,"[1]; middle dose group, 1 mg/kg i.p., 5th day after first injection of carboplatin",291.5 ± 26.18 g
same,body weight,"[1]; middle dose group, 1 mg/kg i.p., 5th day after second injection of carboplatin",328.0 ± 33.38 g
same,body weight,"[1]; middle dose group, 1 mg/kg i.p., 10th day after first injection of carboplatin",315.0 ± 19.28 g
same,body weight,"[1]; middle dose group, 1 mg/kg i.p., 10th day after second injection of carboplatin",334.0 ± 28.15 g
same,body weight,"[1]; middle dose group, 1 mg/kg i.p., 15th day after first injection of carboplatin",329.8 ± 23.77 g
same,body weight,"[1]; middle dose group, 1 mg/kg i.p., before experiment",186.2 ± 11.31 g
same,body weight,"[1]; middle dose group, 1 mg/kg i.p., prophylactic administration for 10 days",282.8 ± 17.29 g
same,body weight,"[2]; high dose group (6 mg/kg per Table 8) intragastric, Day 0",19.5 ± 1.5 g
same,body weight,"[2]; high dose group (6 mg/kg per Table 8) intragastric, Day 7",19.8 ± 1.4 g
same,body weight,"[2]; high dose group (6 mg/kg per Table 8) intragastric, Day 14",20.3 ± 1.8 g
same,body weight,"[2]; low dose group (1.5 mg/kg per Table 8) intragastric, Day 0",20.2 ± 2.0 g
same,body weight,"[2]; low dose group (1.5 mg/kg per Table 8) intragastric, Day 7",20.4 ± 1.5 g
same,body weight,"[2]; low dose group (1.5 mg/kg per Table 8) intragastric, Day 14",21.1 ± 1.6 g
same,body weight,"[2]; middle dose group (3 mg/kg) intragastric, Day 0",19.9 ± 1.9 g
same,body weight,"[2]; middle dose group (3 mg/kg) intragastric, Day 7",20.1 ± 1.7 g
same,body weight,"[2]; middle dose group (3 mg/kg) intragastric, Day 14",20.8 ± 1.7 g
same,thrombocyte aggregation rate,thrombocyte aggregation,increasing thrombocyte aggregation rate
